The supplement of paper PMC8253809

Columns and labels:
[1] = system: DIPGX29 (H3.3 K27M diffuse intrinsic pontine glioma line); assay: EC50 (inflection of fitted growth-inhibition curve) (log10 M)
How it was run: (§1)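 EC50 and maximal response (yFin) were derived from the lowest-AICc fit, either three- or four-parameter log-logistic. The data were pooled CellTiter-Glo luminescence values, log2-transformed and normalised per plate to % activity between negative (solvent) and positive controls. Patient-derived pHGG/DIPG cell lines and astrocyte controls on 1% Geltrex-coated 384-well plates received a 10-point threefold dilution series (mean top concentration 35 μM) by pin tool, in triplicate, for 7 days (iAstro 3 days) at 37 °C, 5% CO2.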

[2] = system: DIPGX37 (H3.3 K27M diffuse intrinsic pontine glioma line); assay: as above
How it was run: as §1

[3] = system: DIPGX9 (diffuse intrinsic pontine glioma line); assay: as above
How it was run: as §1

[4] = system: HABS (astrocyte control); assay: as above
How it was run: as §1

[5] = system: HGGX2 (paediatric high-grade glioma line); assay: as above
How it was run: as §1

[6] = system: HGGX39 (paediatric high-grade glioma line); assay: as above
How it was run: as §1

[7] = system: HGGX42 (H3.3 G34R paediatric high-grade glioma line); assay: as above
How it was run: as §1

[8] = system: SUDIPGIV (diffuse intrinsic pontine glioma line); assay: as above
How it was run: as §1

[9] = system: SUDIPGXIX (diffuse intrinsic pontine glioma line); assay: as above
How it was run: as §1

[10] = system: SUDIPGXVII (diffuse intrinsic pontine glioma line); assay: as above
How it was run: as §1

[11] = system: SUDIPGXXI (diffuse intrinsic pontine glioma line); assay: as above
How it was run: as §1

[12] = system: iAstro (astrocyte control); assay: as above
How it was run: as §1

[13] = system: DIPGX29; assay: maximal growth inhibition (yFin) relative to DMSO / staurosporine; higher = more efficacious
How it was run: as §1

[14] = system: DIPGX37; assay: as above
How it was run: as §1

[15] = system: DIPGX9; assay: as above
How it was run: as §1

[16] = system: HABS; assay: as above
How it was run: as §1

[17] = system: HGGX2; assay: as above
How it was run: as §1

[18] = system: HGGX39; assay: as above
How it was run: as §1

[19] = system: HGGX42; assay: as above
How it was run: as §1

[20] = system: SUDIPGIV; assay: as above
How it was run: as §1

[21] = system: SUDIPGXIX; assay: as above
How it was run: as §1

[22] = system: SUDIPGXVII; assay: as above
How it was run: as §1

[23] = system: SUDIPGXXI; assay: as above
How it was run: as §1

[24] = system: iAstro; assay: as above
How it was run: as §1

[25] = system: DIPGX29; assay: area under dose-response curve of % growth inhibition (log2 RLU vs DMSO / staurosporine), 1e-11 to 1e-4 M (% x log10 M); higher = more growth inhibition
How it was run: (§2)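 Cells were exposed in triplicate for 7 days (iAstro: 3 days) at 37 °C, 5% CO2 to a 10-point series of threefold dilutions with a mean top concentration of 35 μM. These were patient-derived pHGG/DIPG lines plus astrocytes, grown on 384-well plates coated with 1% Geltrex. Readout was CellTiter-Glo luminescence, log2-transformed and set per plate to % activity between solvent and positive controls, from which area under the curve was derived by trapezoid rule on a log-logistic fit or, failing that, a smoothing spline.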

[26] = system: DIPGX37; assay: as above
How it was run: as §2

[27] = system: DIPGX7 (H3.3 K27M diffuse intrinsic pontine glioma line); assay: as above
How it was run: as §2

[28] = system: DIPGX9; assay: as above
How it was run: as §2

[29] = system: HABS; assay: as above
How it was run: as §2

[30] = system: HGGX2; assay: as above
How it was run: as §2

[31] = system: HGGX39; assay: as above
How it was run: as §2

[32] = system: HGGX42; assay: as above
How it was run: as §2

[33] = system: HGGX6 (H3.3 G34R paediatric high-grade glioma line); assay: as above
How it was run: as §2

[34] = system: SUDIPGIV; assay: as above
How it was run: as §2

[35] = system: SUDIPGVI (diffuse intrinsic pontine glioma line); assay: as above
How it was run: as §2

[36] = system: SUDIPGXIII (diffuse intrinsic pontine glioma line); assay: as above
How it was run: as §2

[37] = system: SUDIPGXIX; assay: as above
How it was run: as §2

[38] = system: SUDIPGXVII; assay: as above
How it was run: as §2

[39] = system: SUDIPGXXI; assay: as above
How it was run: as §2

[40] = system: iAstro; assay: as above
How it was run: as §2

[41] = system: DIPGX7; assay: EC50 (inflection of fitted growth-inhibition curve) (log10 M)
How it was run: as §1

[42] = system: DIPGX7; assay: maximal growth inhibition (yFin) relative to DMSO / staurosporine; higher = more efficacious
How it was run: as §1

Structure (SMILES) | EC50 (log10 M) [3] | EC50 (log10 M) [6] | EC50 (log10 M) [11] | maximal growth inhibition [18] | maximal growth inhibition [23] | area under dose-response curve [25] | area under dose-response curve [26] | area under dose-response curve [27] | area under dose-response curve [28] | area under dose-response curve [29] | area under dose-response curve [31] | area under dose-response curve [32] | area under dose-response curve [33] | area under dose-response curve [34] | area under dose-response curve [35] | area under dose-response curve [36] | area under dose-response curve [37] | area under dose-response curve [38] | area under dose-response curve [39] | area under dose-response curve [40] | also measured
O=C1NC(=O)C(c2cnc3ccccn23)=C1c1cn2c3c(cc(F)cc13)CN(C(=O)N1CCCCC1)CC2 | -4.66 | -6.42 | -6.42 | 35.2% | 112% | 42 | 24.1 | 6.78 | 64 | 199 | 70.9 | 72.1 | 30.8 | 300 | 6.26 | 6.37 | 37 | 16.9 | 277 | 66.3 | EC50 (log10 M) [1]: -4.49; EC50 (log10 M) [2]: -4.48; EC50 (log10 M) [4]: -7.93; EC50 (log10 M) [5]: -4.66; EC50 (log10 M) [7]: -5.13; EC50 (log10 M) [8]: -8.3; EC50 (log10 M) [9]: -5.7; EC50 (log10 M) [10]: -4.97; EC50 (log10 M) [12]: -5.34; maximal growth inhibition [13]: 49.3%; maximal growth inhibition [14]: 52.1%; maximal growth inhibition [15]: 97.2%; maximal growth inhibition [16]: 50.7%; maximal growth inhibition [17]: 40.7%; maximal growth inhibition [19]: 60.7%; maximal growth inhibition [20]: 69.8%; maximal growth inhibition [21]: 24.1%; maximal growth inhibition [22]: 22.3%; maximal growth inhibition [24]: 45.8%; area under dose-response curve [30]: 27
N=C(N)c1ccc(N=NNc2ccc(C(=N)N)cc2)cc1 [BERENIL] | – | -5.18 | -5.13 | 68.7% | 46.9% | 41.8 | 90.7 | 20.8 | 5.74 | 0.995 | 84.7 | 0 | 52.7 | 43.8 | 15.1 | 14.9 | 0 | 13.8 | 53.1 | 1.3 | EC50 (log10 M) [8]: -5.18; maximal growth inhibition [20]: 38.7%; area under dose-response curve [30]: 0
Cc1nc(Nc2ncc(C(=O)Nc3c(C)cccc3Cl)s2)cc(N2CCN(CCO)CC2)n1 [DASATINIB] | -4.85 | -5.3 | -4.85 | 41.3% | 110% | 54.9 | 39.6 | 26.2 | 80 | 143 | 77.5 | 83.4 | 61.1 | 60.9 | 12 | 16.1 | 51.9 | 22 | 109 | 27.6 | EC50 (log10 M) [41]: -4.59; EC50 (log10 M) [9]: -4.77; EC50 (log10 M) [12]: -4.82; maximal growth inhibition [42]: 28.2%; maximal growth inhibition [15]: 64.4%; maximal growth inhibition [21]: 50.4%; maximal growth inhibition [24]: 34.9%
